{"source": "patent US9447083B2", "about": "“N-acylhydrazone derivatives for selective T cell inhibitor and anti-lymphoid malignancy drug” (CHONG KUN DANG PHARMACEUTICAL CORP., priority 2012, dated 2016)", "key": {"Jurkat": {"test_system": "Jurkat", "assay": "Apoptosis of lymphoid malignancy cell lines (Annexin V / 7-AAD): Jurkat", "assay_type": "cell-based", "conditions": "Homo sapiens, Acute T cell leukemia, 24 hours, read-out: Administration Dose (mean ± SD, μmol/L) Lethal Dose 50 (Apoptosis)", "description": "(§1) Each of the acute T cell leukemia cell lines Jurkat, Molt4 and CCRF-CEM, the acute B cell leukemia cell line Raji and the […] cell lines KMS11, KMS12BM, KMS26, KMS28BM, and IM9 was re-suspended in 10% FBS-containing RPMI medium at a concentration of 1.5×10^5 cells/mL, and 200 μL of each of the cell suspensions was cultured in a flat bottom 96-well plate (Costar). The acute NK cell lymphoma cell line NK-92MI was re-suspended in α-MEM medium (supplemented with 20% FBS, 1×MEM vitamine solution, 50 μM 2-mercaptoethanol and 1× penicillin/streptomycin) at a concentration of 1.5×10^5 cells/mL, and 200 μL of the cell suspension was cultured in a flat bottom 96-well plate. The cells in each well was treated with 10 μL of each of 0.1, 0.25, 0.5, 0.75 and 1 μM of the compound diluted with RPMI medium, followed by that the cells were incubated in a 5% CO2 incubator at 37° C. for 24 hours. In a vehicle control group, cells were treated with 10 μL of medium containing 0.05% dimetylsulfoxide (DMSO, Sigma).\nThe cells were collected, and then the apoptosis thereof was analyzed by a flow cytometer after staining with Annexin V-7-AAD. The incubated cells were collected, placed in a 5-mL FACS tube (BD Falcon) and washed with 1 mL of fluorescence activated cell sorting (FACS) buffer (1%. FBS and 0.1% sodium azaide in PBS). The cells were re-suspended in 0.1 mL of FACS buffer, followed by that the cells were treated and stained with phycoerythrin-Annexin V at room temperature for 10 minutes. After 10 minutes of staining, the cells were treated and stained with 7-AAD at room temperature for 5 minutes. The stained cells were suspended in 0.3 mL of FACS buffer, and then analyzed by a flow cytometer. […] Thus, compounds 065, 108, 229 and 457 of the present invention can be used as a novel anti-lymphoid malignancy drug."}, "KMS11": {"test_system": "KMS11", "assay": "Apoptosis of lymphoid malignancy cell lines: KMS11", "assay_type": "cell-based", "conditions": "Homo sapiens, KMS-11; KMS11, Multiple myeloma, 24 hours; read-out: Administration Dose (mean ± SD, μmol/L) Lethal Dose 50 (Apoptosis)", "description": "as §1, with “In a vehicle control group, cells were treated with 10 μL of medium containing 0.05% dimetylsulfoxide (DMSO, Sigma).” left out\nThe cells were collected, and then the apoptosis thereof was analyzed by a flow cytometer after staining with Annexin V-7-AAD. The incubated cells were collected, placed in a 5-mL FACS tube (BD Falcon) and washed with 1 mL of fluorescence activated cell sorting (FACS) buffer (1%. FBS and 0.1% sodium azaide in PBS). […] The stained cells were suspended in 0.3 mL of FACS buffer, and then analyzed by a flow cytometer. […]"}, "[1]": {"test_system": "alloantigen-specific T cells", "assay": "Inhibitory effect against alloantigen-specific T cells in vitro (mixed lymphocyte reaction, CFSE / 7-AAD)", "assay_type": "cell-based, mouse", "conditions": "for Apoptosis % (mean ± SD) Primary Response / Apoptosis % (mean ± SD) Secondary Response: 72 hours; for Apoptosis % (mean ± SD) Primary Response: vehicle 30.91 ± 3.80; for Apoptosis % (mean ± SD) Secondary Response: vehicle 39.10 ± 4.10", "description": "The lymph nodes and spleens were aseptically collected from normal C57BL/6 mice (8-12 week old, female, 20±2 g) and were ground with adding of RPMI medium. Then, the ground tissues were passed through a cell strainer (BD Falcon) to make single cell suspensions. The single cell suspension of the spleen was centrifuged at 1200 rpm for 5 minutes. The supernatant was removed, and then 1 mL of ammonium chloride/potassium bicarbonate (ACK) lysis buffer (0.15 M NH4Cl, 1 mM KHCO3, 0.1 mM Na2EDTA) was added to the cells, which were then vortexed for 1 minute and washed with RPMI medium. […] The incubated cell suspension was added with 10 mL of MACS buffer, centrifuged for 5 minutes, washed, and then re-suspended in 2 mL of MACS buffer. The suspended cells were placed in the autoMACS Pro Separator (Miltenyi Biotec), and T cells bound to CD90.2 microbeads were isolated. The isolated T cells were washed with phosphate buffered saline (PBS), and then re-suspended in PBS at a concentration of 1×10^8 cells/mL. Normal BALB/c mice (10-12 week old, female, 20-23 g) were irradiated with 950 rad of γ radiation using IBL 437C irradiator (CIS bio international), and then 100 μL of the above-prepared T cell suspension of C57BL/6 mice were injected into the tail vein of the BALB/c mice. At 3 days after the cell injection, the mice were sacrificed, and the spleens were obtained. An erythrocyte-free single cell suspension was made from the obtained spleens in the same manner as described above, and donor T cells were separated from the spleen cell suspension using the autoMACS Pro Separator, thereby preparing secondary responder cells. Meanwhile, T cells were isolated from normal C57BL/6 mice in the same manner as described above, thereby preparing primary responder cells. Each of the primary and secondary responder cells were re-suspended in 1 mL of 1% FBS-containing PBS, and treated with 3 μM of carboxyfluorescein diacetate succinimidyl ester (CFSE, Invitrogen), and then allowed to react at room temperature for 4 minutes. To stop the reaction, cold-stored 5% FBS-containing PBS was added to the cell suspension, followed by washing. The washed cells were re-suspended in 10% FBS-containing RPMI medium at a concentration of 2×10^6/mL. The spleens of normal BALB/c mice (8-12 week old, female, 20±2 g) were aseptically collected. The erythrocyte-free spleen cells were prepared in the same manner as described above, and then re-suspended in 1 mL of PBS. 0.5 mg/mL of Mitomycin-C(Sigma) was added to the suspension at a concentration of 0.5 μg/mL, and the cells were incubated at 37° C. for 20 minutes, and then washed three times with an excessive amount of PBS. The washed cells were re-suspended in 10% FBS-containing RPMI medium at a concentration of 4×10^6 cells/mL, thereby preparing stimulator cells. The primary and secondary responder cells were mixed with the stimulator cells at a ratio of 1:1 separately, and 200 μL of each cell mixtures was dispensed into each well of a round bottom 96-well plate (Costar). Then, the cells were treated with 10 μL of Compound 229 diluted in RPMI medium at various concentrations, and incubated in a 5% CO2 incubator at 37° C. for 72 hours. In a vehicle control group, the cells were 10 μL of 0.2% DMSO-containing RPMI medium. The incubated cells were placed into 5-mL FACS tubes and washed with 1 mL of fluorescence activated cell sorting (FACS) buffer (1% FBS and 0.1% sodium azaide in PBS). The washed cells were re-suspended in 0.1 mL of FACS buffer, and then treated with 1 μg of mouse immunoglobulin G (IgG, e-Biosciences) in order to prevent the non-specific binding of antibody, followed by incubation at 4° C. for 15 minutes. Then, the cells were stained with 0.5 μg of phycoerythrin-conjugated anti-mouse H-2K^b mAb (e-Biosciences) and stained at 4° C. for 30 minutes. After the staining, the cells were washed twice with 1 mL of FACS buffer, re-suspended in 0.1 mL of FACS buffer, stained with 7-AAD at room temperature for 5 minutes. […]"}, "KMS20": {"test_system": "KMS20", "assay": "Apoptosis of lymphoid malignancy cell lines: KMS20", "assay_type": "cell-based", "conditions": "KMS-20; KMS20, Multiple myeloma, 24 hours; read-out: Administration Dose (mean ± SD, μmol/L) Lethal Dose 50 (Apoptosis)"}}, "data": [{"compound": "Cc1cc(C)c(OCC(=O)N/N=C/c2ccc3cc[nH]c3c2)c(C2CCOC2)c1", "note": "(stereo not drawn) [Compound 229, (E)-N′-((1H-indol-6-yl)methylene)-2-(2,4-dimethyl-6-(tetrahydrofuran-3-yl)phenoxy)acetohydrazide]", "values": [{"measurement": "EC50", "setting": "Jurkat", "value": 0.62, "unit": "µmol/L"}, {"measurement": "EC50", "setting": "KMS11", "value": "0.35 ± 0.09", "unit": "µmol/L"}, {"measurement": "Apoptosis % (mean ± SD) Primary Response", "setting": "[1]; 0.125 μM, 7-AAD", "value": "28.42 ± 5.31", "unit": "%"}, {"measurement": "Apoptosis % (mean ± SD) Secondary Response", "setting": "[1]; 0.125 μM, 7-AAD", "value": "41.40 ± 4.35", "unit": "%"}, {"measurement": "increase of apoptosis compared to the vehicle control group, secondary response", "setting": "[1]; 0.25 μM or higher, 7-AAD", "value": "21-42%"}, {"measurement": "Apoptosis % (mean ± SD) Primary Response", "setting": "[1]; 0.25 μM, 7-AAD", "value": "31.20 ± 4.26", "unit": "%"}, {"measurement": "Apoptosis % (mean ± SD) Secondary Response", "setting": "[1]; 0.25 μM, 7-AAD", "value": "60.27 ± 6.10", "unit": "%"}, {"measurement": "increase of apoptosis compared to the vehicle control group, primary response", "setting": "[1]; 0.5 μM or higher, 7-AAD", "value": "14-19%"}, {"measurement": "ratio of T cells (CFSE low) that proliferated in response to the alloantigen, of the total T cells", "setting": "[1]; 0.5 μM or higher, vehicle control 50%", "value": "≤ 3", "unit": "%"}, {"measurement": "Apoptosis % (mean ± SD) Primary Response", "setting": "[1]; 0.5 μM, 7-AAD", "value": "45.01 ± 5.48", "unit": "%"}, {"measurement": "Apoptosis % (mean ± SD) Secondary Response", "setting": "[1]; 0.5 μM, 7-AAD", "value": "81.70 ± 5.62", "unit": "%"}, {"measurement": "Apoptosis % (mean ± SD) Primary Response", "setting": "[1]; 1 μM, 7-AAD", "value": "50.37 ± 6.19", "unit": "%"}, {"measurement": "Apoptosis % (mean ± SD) Secondary Response", "setting": "[1]; 1 μM, 7-AAD", "value": "80.37 ± 7.16", "unit": "%"}, {"measurement": "proliferation of the alloantigen-specific T cells, secondary response", "setting": "[1]; T cells activated primarily by the alloantigen in vivo, reacted with the same antigen in vitro", "value": "effectively inhibited"}, {"measurement": "EC50", "setting": "KMS20", "value": "0.74 ± 0.05", "unit": "µmol/L"}]}]}
